In test [1] the test system is osteoclast lineage cells (osteoclasts and their mononuclear precursors). In words: RANKL-induced osteoclast differentiation (osteoclast number by TRAP staining, cell size by surface area measurement). The settings on record: for osteoclast lineage cells size: phloretin 50 μM added for the last day, mean ± SEM of at least 50 cells. The test is classed as cell-based, mouse. As to the method:
(§1) Bone marrow cells (BMMs) were prepared from the long bones of 7-9 week old BALB/c male mice. Primary BMMs were prepared by flushing mouse femurs and tibias with α-MEM. Cells were cultured in Petri dishes, in complete α-MEM, supplemented with 10% CMG14-12 culture supernatant, which served as a source of M-CSF. After 3 days of culture, plates were washed 3 to 4 times with PBS to remove non-adherent cells. Adherent cells were removed with trypsin-EDTA solution, centrifuged and resuspended in a fresh medium. Murine macrophage-like RAW264.7 cell line was maintained in RPMI 1640 medium supplemented with 10% fetal calf serum (FCS) in the presence of antibiotics (penicillin and streptomycin). Cells were cultured at 37° C. incubator in a humidified atmosphere with 5% CO2, and media were changed every other day. BMMs (7×10^3/well in α-MEM containing 10% FCS and supernatant from CMG14-12 [1:20]) or RAW264.7 cells (3×10^3/well in RPMI-1640 containing 10% FCS) were incubated in 96-well plates (0.2 ml/well). To induce cells to differentiate into osteoclasts, bacterially-produced recombinant RANKL was added at the time of plating. On day 3, medium was changed and on day 5, osteoclast formation was evaluated (see below). A commercial kit (Cat. No. 387-A, Sigma) was used according to the manufacturer instructions. TRAP-positive cells containing three or more nuclei were scored as osteoclasts. The surface area occupied by osteoclasts and their precursors was quantified using a computerized image analysis system (Olympus BX50, DP50, software: ImagePro Plus, Media Cybernetics). In the following assay the significance of the activity of AQP-9 to osteoclast differentiation was determined.

The next test has as its system bone marrow cells (BMMs). In words: Methylene blue uptake. Format: cell-based, mouse. The settings on record: FIG. 5. The procedure:
as §1, with “To induce cells to differentiate into osteoclasts, bacterially-produced recombinant RANKL was added at the time of plating.” left out, “below).” for “below). A commercial kit (Cat. No. 387-A, Sigma) was used according to the manufacturer instructions. TRAP-positive cells containing three or more nuclei were scored as osteoclasts. The surface area occupied by osteoclasts and their precursors was quantified using a computerized image analysis system (Olympus BX50, DP50, software: ImagePro Plus, Media Cybernetics). In the following assay the significance of the activity of AQP-9 to osteoclast differentiation was determined.”
Cells were seeded as for the osteoclast differentiation assay (see above). Monolayers were fixed and methylene blue uptake was measured as described [Goldman, R., and Bar-Shavit, Z. (1979) J. Natl. Cancer Inst. […]

For `O=C(CCc1ccc(O)cc1)c1c(O)cc(O)cc1O` [Phloretin, 2′,4′,6′-Trihydroxy-3-(4-hydroxyphenyl)-propiophenone], the “osteoclast lineage cells size” value turned out to be 23722 ± 4351 μm^2 in test [1] (+RANKL for 5 days) and 267 ± 6 μm^2 in test [1] (−RANKL (mononuclear precursors)). Moreover, the “effect on osteoclast number” value in test [1] (+RANKL for 5 days, phloretin added for the last day, FIG. 4A-4D) is on record as “dramatic reduction”. The “effect on osteoclast size” value in test [1] (+RANKL for 5 days, phloretin added for the last day, FIG. 4A-4D, Table 3) is reported as “dramatic reduction”. The “effect on number of the mononuclear precursors” value in test [1] (cells not treated with RANKL) was “did not exhibit a significant effect”. The “effect on size of the mononuclear precursors” value in test [1] (cells not treated with RANKL) was “did not exhibit a significant effect”. Further, the “effect on methylene blue uptake” value in the test on bone marrow cells (BMMs) (RANKL-treated cells) is recorded as “marked inhibition”; in the test with bone marrow cells (BMMs) (mononuclear precursors (BMMs grown in the absence of RANKL)), “No effect”.

Source of the values: patent publication US8835390B2, “Modulation of osteoclast differentiation” (Osteobuild Ltd., priority 2005, dated 2014).
